Results: patent US6911432B2, “Drugs, foods or drinks with the use of algae-derived physiologically active substances” (priority 1997, dated 2005)

What was measured:
[1] = tested on: RAW 264.7 cells; test: NO production induced by LPS, NO2- concentration in medium; format: cell-based, mouse; conditions: for inhibition of NO production (in words): RAW264.7, aqueous 100 mM solution used as sample
Method: (1) RAW 264.7 cells (ATCC TIB 71) were suspended in phenol red-free Dulbecco's modified Eagle's medium containing 10% fetal bovine serum (manufactured by Gibco) and 2 mM L-glutamine (manufactured by Life Technologies Oriental, 25030-149) at a concentration of 3×10^5 cells/ml, and 500 μl portions thereof were seeded to respective wells of a 48-well microtiter plate and incubated at 37° C. for 12 hours in the presence of 5% CO2. To each well were added 10 μl of 25 μg/ml lipopolysaccharide (LPS, manufactured by Sigma, L-2012) and 10 μl of aqueous 5000, 1500, 500, 150 or 50 μM agarobiose or neoagarobiose (manufactured by Sigma, G4410) solution, and the plate was incubated for additional 12 hours. Then, concentration of NO2^− produced by oxidation of NO in the medium was measured. As control groups, a group to which LPS was not added and a group to which agarobiose or neoagarobiose was not added were provided.
After incubating as described above, 100 μl of 4% Greece reagent (manufactured by Sigma, G4410) was added to 100 μl of the medium, and the mixture was allowed to stand for 15 minutes at room temperature. Then, the absorbance at 490 nm was measured. NO2^− concentration in the medium was calculated with reference to a calibration curve prepared by using NaNO2 at given concentrations dissolved in the same medium as that described above. All the measurements were carried out in triplicate.
(2) A suspension of 5 g of commercially available agar (Ina agar type S-7, manufactured by Ina Shokuhin Kogyo) in 45 ml of 0.1 N HCl was treated at 95° C. for 13 minutes. After cooling to room temperature, the suspension was neutralized with NaOH and filtered through 0.22 μm MILLEX-GP filter (manufactured by Milipore, SLGPR25LS). […] Namely, 10 μl of 25 μg/ml LPS and 10 μl of a 20-fold dilution of the sample mentioned above were added to wells of a 48 well microtiter plate containing RAW264.7 cells which had been incubated in the wells. The measurement was carried out with the culture medium. As control groups, a group to which LPS was not added, a group to which a sample was not added and a group to which 2.5 mM citric acid was added were provided. All the measurement were carried out in duplicate.

[2] = tested on: HL-60 cells; test: apoptosis-inducing assay, cell morphology under an optical microscope; format: cell-based, human
Method: Human promyelocytic leukemia cell HL-60 (ATCC CCL-240) was incubated at 37° C. in RPMI 1640 medium (manufactured by Gibco) supplemented with 10% of fetal bovine serum (JRH Bioscience) which had been treated at 56° C. for 30 minutes, and suspended in the same medium at a concentration of 500 cells/90 μl. Each 90 μl portion of the suspension was distributed into each well of a 96 well plate (manufactured by Falcon). To the suspension in each well was added 10 μl of the above-mentioned acid decomposition solution, a 10-fold dilution of the solution or water, and incubated with 5% CO2 at 37° C. After 24 hour and 48 hour from the initiation of the incubation, the cell morphology was observed under an optical microscope. Then, according to the MTT method described in “Apoptosis Jikken Protocol” (Syuzyun-sha, Tanuma, Seiichi ed., pp. 156 (1994)), 5 mg/ml of 3-(4,5-dimethylthiazole-2-yl)-2,5-diphenyltetrazolium bromide (manufactured by Sigma) and 10 μl of phosphate buffered saline solution were added to the culture and the incubation was continued for additional 4 hours. Then, 100 μl of 2-propanol containing 0.04 N hydrochloric acid was added to the culture, and the mixture was thoroughly stirred. An absorbance at 590 nm was measured and the number of viable cells was calculated from the absorbance measured for each of the wells, which was compared each other.
Each elution peak was fractionated, collected, evaporated to dryness under reduced pressure and then dissolved in 300 μl of water. Each fraction was sterilized by filtration and its 10 μl portion was placed in a well of a 96 well microtiter plate. Then, 90 μl of RPMI 1640 medium (manufactured by Nissui) containing 10% fetal bovine serum (manufactured by Gibco) and 5,000 HL-60 cells (ATCC CCL-240) was added thereto, followed by incubation at 37° C. for 48 hours with 5% CO2. The cell morphology was observed under an optical microscope. Then, 5 mg/ml 3-(4,5-dimethylthiazole-2-yl)-2,5-diphenyltetrazolium bromide and 10 μl of phosphate buffered saline solution were added thereto and the incubation was continued for additional 4 hours. To the culture was added 100 μl of 2-propanol containing 0.04 N hydrochloric acid and the resultant mixture was thoroughly stirred. The absorbance at 590 nm was measured to determine a cell proliferation rate.

[3] = tested on: HL-60 cells; test: antiproliferation assay, MTT method, absorbance at 590 nm; format: cell-based, human; conditions: for antiproliferation activity against HL-60 cells (in words): preparations and fractions, compared with control to which water was added
[4] = tested on: lipid peroxide radical production; test: inhibition of lipid peroxide radical production (tert-butyl hydroperoxide, bacterial growth readout); format: cell-based, Staphylococcus aureus 3A; design: key to growth of the bacterium (activity of inhibiting lipid peroxide radical production): + represents the sample in which the growth of the bacterium was observed; −represents the sample in which the growth of the bacterium was not observed
Method: Staphylococcus aureus 3A (National Collection Of Type Culture, NCTC 8319) was inoculated into 5 ml of brain heart infusion medium (manufactured by Difco, 0037-17-8) and cultured at 37° C. overnight. The bacterial cells were collected by centrifugation, washed with phosphate buffered saline 3 times and then suspended in phosphate buffered saline at a concentration of 1×10^7 colony forming units/ml. A mixture of 100 μl of the cell suspension, 100 μl of an aqueous sample solution, 100 μl of aqueous 1 mg/ml methemoglobin (manufactured by Sigma M9250) solution, 600 μl of phosphated buffered saline and 100 μl of aqueous 50 mM tert-butyl hydroperoxide (manufactured by Katayama Kagaku, 03-4990) solution were reacted at 37° C. for 30 minutes. To the reaction mixture was added 1 ml of 2×NMP medium [prepared by dissolving 8 g of nutrient broth (manufactured by Difco, 0003-01-6), 5 g of trypton (manufactured by Difco, 0123-17-3), 5 g of NaCl, 10 g of mannitol (manufactured by Nacalai Tesque, 213-03) and 0.035 g of phenol red (manufactured by Nacalai Tesque, 268-07) in distilled water to make the volume up to 500 ml. The pH was adjusted to 7.5 with NaOH and then the mixture was sterilized by filtration] to stop the reaction. The resultant mixture was diluted every 3-folds with NMP medium (prepared by diluting 2×NMP medium 2-folds with sterilized water) to prepare 12 serial dilutions and 160 μl of each dilution was placed in each well of a 96-well microtiter plate. The plate was incubated at 37° C. overnight.
In Table 14, + represents the sample in which the growth of the bacterium was observed, and −represents the sample in which the growth of the bacterium was not observed. The concentration shown in the uppermost line of the table is that of the sample in the reaction mixture in which the sample was reacted with tert-butyl hydroperoxide and the bacterial cells at 37° C. for 30 minutes.

[5] = tested on: HL-60 cells; test: viable cell count with Trypan Blue under a microscope; format: cell-based, human; conditions: final concentration 250 μM or 125 μM
Method: Agarobiose, agarotetraose, agarohexaose and agarooctaose (hereinafter, sometimes, these oligosuccharaides are referred to as agarooligosaccharides) obtained in Example 5 were dissolved in water at a concentration of 2.5 mM or 1.25 mM separately, and were sterilized by filtration. HL-60 cells were suspended in RPMI 1640 medium containing 10% fetal bovine serum at a concentration of 2.5×10^5 cells/4.5 ml and to this suspension was added 0.5 ml of each of the oligosaccharide solutions. The resultant mixture were incubated with 5% CO2 at 37° C. for 24 hours or 48 hours. A part of the cell culture was taken up, followed by addition of Trypan Blue thereto and observing under a microscope to count the number of viable cells.
That is, FIG. 14 illustrates the relation between the incubation time and the number of viable cells when HL-60 cells were cultured with addition of one of the oligosaccharides at the final concentration of 250 μM. FIG. 15 illustrates the relation between the incubation time and the number of viable cells when HL-60 cells were cultured with addition of one of the oligosaccharides at the final concentration of 125 μM. In FIGS. 14 and 15, the horizontal axes represent the incubation time (hrs.) and the vertical axes represent the number of viable cells (× 10^5/5 ml). The closed circle (●) represents the addition of water (control), the open diamond (⋄) represents the addition of agarobiose, the open circle (◯) represents the addition of agarotetraose, the open triangle (Δ) represents the addition of agarohexaose and the open square (□) represents the addition of agarooctaose.

Compound: O=C[C@H](O)[C@H]1OC[C@@H](O)[C@@H]1O [3,6-anhydro-D-galactose]
- inhibition of NO production (in words) [1]: inhibited NO production

Compound: O=C[C@@H](O)[C@@H]1OC[C@H](O)[C@H]1O [3,6-anhydro-L-galactose]
- apoptosis corpuscles ([2]; final concentration of 1 mM): apoptosis corpuscles were observed
- absorbance at 590 nm relative to that of the control group to which water was added ([3]; HL-60, final concentration of 1 mM): less than one-half

Compound: O=C[C@H](O)[C@@H](O)[C@@H](O)[C@H](O)CO [Galactose, galactose, reference compound]
- inhibition of NO production (in words) [1]: did not
- growth of the bacterium (activity of inhibiting lipid peroxide radical production) ([4]; 0.1 mM sample in the reaction mixture): −
- growth of the bacterium (activity of inhibiting lipid peroxide radical production) ([4]; 1 mM sample in the reaction mixture): −

Compound: OC[C@H]1OC(O)[C@H](O)[C@@H](O[C@@H]2O[C@H]3CO[C@@H]([C@@H]2O)[C@@H]3O)[C@H]1O (stereo partly drawn) [neoagarobiose, reference compound]
- inhibition of NO production induced by LPS (in words) ([1]; RAW 264.7, 10 μl of 5000 to 50 μM solution per 500 μl well, 12 hours): did not

Compound: CO[C@H](C=O)[C@@H]1OC[C@H](O)[C@H]1O[C@@H]1O[C@H](CO)[C@H](O)[C@H](O)[C@H]1O [β-D-galactopyranosyl-(1→4)-3,6-anhydro-2-O-methyl-L-galactose]
- antiproliferation activity against HL-60 cells (in words) [3]: strong antiproliferation activity
- antiproliferation activity against HL-60 cells (in words) ([3]; listed as group 3): an antiproliferation activity was observed

Compound: O=C[C@H](O)[C@H]1OC[C@@H](O)[C@@H]1O[C@@H]1O[C@H](CO)[C@H](OS(=O)(=O)O)[C@H](O)[C@H]1O [κ-carabiose, β-D-galactopyranosyl-4-sulfate-(1→4)-3,6-anhydro-D-galactose]
- apoptosis corpuscles under an optical microscope ([2]; 156 μM): apoptosis corpuscles were observed
- apoptosis-inducing activity (apoptosis corpuscles, in words) ([2]; preparations and fractions): apoptosis corpuscles were observed
- cell proliferation suppressed as compared with the control group ([3]; HL-60, κ-carabiose at 156 μM): about 70%
- antiproliferation activity against HL-60 cells (in words) [3]: cell proliferation was inhibited

Compound: agarooctaose
- apoptosis corpuscles [5]: apoptosis corpuscles were observed
- number of viable cells as compared with the group to which water was added ([5]; 24 hours or 48 hours): decreased
